Measured values: patent US11492346B2, “Benzisoxazole sulfonamide derivatives” (Pfizer Inc., priority 2019, dated 2022)
pIC50, pKi: −log10 of the molar value. Where two headings read alike, the source gives them in different places.

Assays:
KAT6A = KAT6A (Homo sapiens (Human), UniProt Q92794); assay: KAT assay (SAMDI mass spectrometry), KAT6A; format: biochemical;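 also: Baculovirus-expressed KAT6A acetylating histone H3 (1-21) peptide (2 µM), 30-60 min at room temperature, % product conversion fitted to Morrison equation for tight-binding competitive inhibitors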
Chain of KAT6A (Q92794 whole entry): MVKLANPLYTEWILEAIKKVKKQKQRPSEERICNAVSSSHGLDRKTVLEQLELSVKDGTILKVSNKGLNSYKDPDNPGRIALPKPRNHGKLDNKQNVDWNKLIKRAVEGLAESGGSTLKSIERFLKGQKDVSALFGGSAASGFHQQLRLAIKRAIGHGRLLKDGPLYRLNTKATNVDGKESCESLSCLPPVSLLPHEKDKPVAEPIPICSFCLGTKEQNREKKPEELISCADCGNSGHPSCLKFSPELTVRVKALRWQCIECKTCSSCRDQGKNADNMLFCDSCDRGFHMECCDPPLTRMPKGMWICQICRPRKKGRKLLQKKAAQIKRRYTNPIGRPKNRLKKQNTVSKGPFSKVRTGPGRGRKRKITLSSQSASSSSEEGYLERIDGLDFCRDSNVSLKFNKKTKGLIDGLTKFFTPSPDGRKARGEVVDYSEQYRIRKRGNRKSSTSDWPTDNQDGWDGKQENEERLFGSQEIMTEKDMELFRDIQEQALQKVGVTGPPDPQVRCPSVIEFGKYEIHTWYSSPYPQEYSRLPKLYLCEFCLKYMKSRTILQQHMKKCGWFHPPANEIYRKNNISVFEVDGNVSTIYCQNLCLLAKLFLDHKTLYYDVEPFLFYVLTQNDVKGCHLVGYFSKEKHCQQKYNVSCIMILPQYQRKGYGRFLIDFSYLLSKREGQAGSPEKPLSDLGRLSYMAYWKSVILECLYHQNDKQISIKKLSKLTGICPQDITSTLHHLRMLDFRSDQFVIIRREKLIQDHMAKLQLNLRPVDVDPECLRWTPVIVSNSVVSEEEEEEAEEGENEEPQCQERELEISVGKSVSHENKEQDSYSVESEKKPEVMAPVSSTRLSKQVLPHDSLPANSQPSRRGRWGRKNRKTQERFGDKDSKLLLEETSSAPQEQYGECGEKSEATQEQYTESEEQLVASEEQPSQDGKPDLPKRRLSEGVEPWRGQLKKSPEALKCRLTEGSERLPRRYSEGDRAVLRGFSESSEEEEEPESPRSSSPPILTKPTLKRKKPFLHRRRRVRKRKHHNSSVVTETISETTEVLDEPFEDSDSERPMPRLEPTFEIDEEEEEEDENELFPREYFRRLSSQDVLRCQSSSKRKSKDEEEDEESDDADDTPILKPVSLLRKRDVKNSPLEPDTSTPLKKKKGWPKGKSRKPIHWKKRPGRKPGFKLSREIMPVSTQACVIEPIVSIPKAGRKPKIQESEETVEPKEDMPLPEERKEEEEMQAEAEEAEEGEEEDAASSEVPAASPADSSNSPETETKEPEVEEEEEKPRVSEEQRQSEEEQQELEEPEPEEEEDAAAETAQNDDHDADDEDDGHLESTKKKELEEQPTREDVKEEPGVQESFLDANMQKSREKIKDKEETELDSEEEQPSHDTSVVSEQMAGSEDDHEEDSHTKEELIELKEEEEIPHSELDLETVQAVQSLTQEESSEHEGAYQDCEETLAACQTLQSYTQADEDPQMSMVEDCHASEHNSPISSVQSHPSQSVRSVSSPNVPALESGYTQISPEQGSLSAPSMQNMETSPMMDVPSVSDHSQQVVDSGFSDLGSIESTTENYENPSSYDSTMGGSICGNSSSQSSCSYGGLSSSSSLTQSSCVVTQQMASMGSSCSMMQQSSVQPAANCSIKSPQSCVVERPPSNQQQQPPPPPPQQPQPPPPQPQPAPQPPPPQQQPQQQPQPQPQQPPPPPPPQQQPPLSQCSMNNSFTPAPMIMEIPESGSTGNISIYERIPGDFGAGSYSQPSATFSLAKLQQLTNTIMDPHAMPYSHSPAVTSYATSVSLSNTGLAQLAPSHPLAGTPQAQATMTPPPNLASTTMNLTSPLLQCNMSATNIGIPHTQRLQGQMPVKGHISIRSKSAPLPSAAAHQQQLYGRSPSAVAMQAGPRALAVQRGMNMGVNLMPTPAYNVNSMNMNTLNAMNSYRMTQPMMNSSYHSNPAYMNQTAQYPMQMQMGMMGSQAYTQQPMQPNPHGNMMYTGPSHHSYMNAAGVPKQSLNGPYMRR

KAT6B = KAT6B (Homo sapiens (Human), UniProt Q8WYB5); assay: KAT assay (SAMDI mass spectrometry), KAT6B; format: biochemical
Chain of KAT6B (Q8WYB5 whole entry): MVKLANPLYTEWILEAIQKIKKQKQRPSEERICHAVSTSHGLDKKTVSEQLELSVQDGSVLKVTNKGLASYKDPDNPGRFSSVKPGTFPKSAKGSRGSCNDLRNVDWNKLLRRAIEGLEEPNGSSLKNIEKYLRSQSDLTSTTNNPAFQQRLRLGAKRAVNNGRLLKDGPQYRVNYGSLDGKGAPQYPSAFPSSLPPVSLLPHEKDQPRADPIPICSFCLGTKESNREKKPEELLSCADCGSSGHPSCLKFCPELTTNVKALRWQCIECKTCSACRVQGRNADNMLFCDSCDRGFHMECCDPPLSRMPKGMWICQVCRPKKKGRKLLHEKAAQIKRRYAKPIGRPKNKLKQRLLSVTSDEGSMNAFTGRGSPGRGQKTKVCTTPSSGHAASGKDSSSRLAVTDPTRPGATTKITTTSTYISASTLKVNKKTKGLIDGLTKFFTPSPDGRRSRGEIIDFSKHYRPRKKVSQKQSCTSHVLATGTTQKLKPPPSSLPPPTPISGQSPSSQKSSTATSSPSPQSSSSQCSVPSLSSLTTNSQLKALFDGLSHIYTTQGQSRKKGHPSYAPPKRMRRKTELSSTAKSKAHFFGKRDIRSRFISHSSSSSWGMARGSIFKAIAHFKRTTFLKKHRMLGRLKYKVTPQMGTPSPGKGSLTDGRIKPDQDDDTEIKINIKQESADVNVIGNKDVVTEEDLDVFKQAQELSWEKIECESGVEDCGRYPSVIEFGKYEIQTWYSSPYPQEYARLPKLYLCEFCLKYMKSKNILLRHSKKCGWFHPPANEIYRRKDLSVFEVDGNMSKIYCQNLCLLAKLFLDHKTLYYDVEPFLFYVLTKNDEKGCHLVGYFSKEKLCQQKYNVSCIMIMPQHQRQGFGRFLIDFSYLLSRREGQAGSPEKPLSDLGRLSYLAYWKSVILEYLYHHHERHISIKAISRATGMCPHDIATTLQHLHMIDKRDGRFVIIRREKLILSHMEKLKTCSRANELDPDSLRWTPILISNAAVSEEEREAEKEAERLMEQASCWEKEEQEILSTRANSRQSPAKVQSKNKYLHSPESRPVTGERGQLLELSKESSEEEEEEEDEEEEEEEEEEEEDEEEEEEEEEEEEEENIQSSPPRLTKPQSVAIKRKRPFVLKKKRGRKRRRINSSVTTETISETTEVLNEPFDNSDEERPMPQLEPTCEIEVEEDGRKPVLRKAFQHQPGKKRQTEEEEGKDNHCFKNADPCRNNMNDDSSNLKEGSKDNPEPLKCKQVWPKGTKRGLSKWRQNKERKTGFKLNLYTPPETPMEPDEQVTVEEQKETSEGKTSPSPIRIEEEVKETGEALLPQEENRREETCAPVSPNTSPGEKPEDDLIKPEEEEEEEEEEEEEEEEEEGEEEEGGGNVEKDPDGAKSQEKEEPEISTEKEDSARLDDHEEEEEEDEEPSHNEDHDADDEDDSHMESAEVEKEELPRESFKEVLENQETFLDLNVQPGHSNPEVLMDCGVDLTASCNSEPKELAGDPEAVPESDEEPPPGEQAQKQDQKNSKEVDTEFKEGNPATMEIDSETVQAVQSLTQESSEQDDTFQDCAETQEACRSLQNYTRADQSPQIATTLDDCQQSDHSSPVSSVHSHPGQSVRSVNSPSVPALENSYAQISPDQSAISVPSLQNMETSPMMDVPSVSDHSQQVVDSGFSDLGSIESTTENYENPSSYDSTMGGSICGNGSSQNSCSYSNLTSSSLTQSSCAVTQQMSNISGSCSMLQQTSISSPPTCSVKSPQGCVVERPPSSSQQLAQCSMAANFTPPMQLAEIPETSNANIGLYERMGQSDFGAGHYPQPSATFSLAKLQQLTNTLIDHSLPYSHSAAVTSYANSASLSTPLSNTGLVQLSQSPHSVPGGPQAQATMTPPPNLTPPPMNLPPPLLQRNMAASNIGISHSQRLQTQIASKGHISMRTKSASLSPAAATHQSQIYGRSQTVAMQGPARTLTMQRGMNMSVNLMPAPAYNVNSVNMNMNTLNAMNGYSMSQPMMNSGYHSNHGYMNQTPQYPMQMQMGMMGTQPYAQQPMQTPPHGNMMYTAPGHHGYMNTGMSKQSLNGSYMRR

KAT5 = KAT5 (Homo sapiens (Human), UniProt Q92993); assay: KAT assay (SAMDI mass spectrometry), KAT5; format: biochemical;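 also: Baculovirus-expressed KAT5 acetylating a histone H4 peptide at room temperature, read as percent conversion to product, Ki from a Morrison tight-binding competitive fit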
Chain of KAT5 (Q92993 whole entry): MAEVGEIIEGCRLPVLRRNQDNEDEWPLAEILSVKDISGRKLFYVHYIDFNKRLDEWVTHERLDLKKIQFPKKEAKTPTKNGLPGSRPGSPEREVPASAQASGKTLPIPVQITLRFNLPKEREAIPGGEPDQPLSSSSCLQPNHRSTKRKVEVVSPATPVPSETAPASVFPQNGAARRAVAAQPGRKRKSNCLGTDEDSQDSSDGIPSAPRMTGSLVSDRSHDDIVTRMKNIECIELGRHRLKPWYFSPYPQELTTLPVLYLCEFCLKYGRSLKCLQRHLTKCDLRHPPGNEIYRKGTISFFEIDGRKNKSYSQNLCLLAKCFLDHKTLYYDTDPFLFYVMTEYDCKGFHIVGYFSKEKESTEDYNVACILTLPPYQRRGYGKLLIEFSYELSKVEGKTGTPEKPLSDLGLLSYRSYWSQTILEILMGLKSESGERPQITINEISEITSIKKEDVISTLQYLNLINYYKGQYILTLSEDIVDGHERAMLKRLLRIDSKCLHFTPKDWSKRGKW

KAT7 = KAT7 (Homo sapiens (Human), UniProt O95251); assay: KAT assay (SAMDI mass spectrometry), KAT7; format: biochemical;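 also: Baculovirus-expressed enzyme acetylating a histone peptide at room temperature, percent conversion from product and substrate peak areas, Ki from a Morrison tight-binding competitive fit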
KAT8 = KAT8 (Homo sapiens (Human), UniProt Q9H7Z6); assay: KAT assay (SAMDI mass spectrometry), KAT8; format: biochemical
Chain of KAT8 (Q9H7Z6 whole entry): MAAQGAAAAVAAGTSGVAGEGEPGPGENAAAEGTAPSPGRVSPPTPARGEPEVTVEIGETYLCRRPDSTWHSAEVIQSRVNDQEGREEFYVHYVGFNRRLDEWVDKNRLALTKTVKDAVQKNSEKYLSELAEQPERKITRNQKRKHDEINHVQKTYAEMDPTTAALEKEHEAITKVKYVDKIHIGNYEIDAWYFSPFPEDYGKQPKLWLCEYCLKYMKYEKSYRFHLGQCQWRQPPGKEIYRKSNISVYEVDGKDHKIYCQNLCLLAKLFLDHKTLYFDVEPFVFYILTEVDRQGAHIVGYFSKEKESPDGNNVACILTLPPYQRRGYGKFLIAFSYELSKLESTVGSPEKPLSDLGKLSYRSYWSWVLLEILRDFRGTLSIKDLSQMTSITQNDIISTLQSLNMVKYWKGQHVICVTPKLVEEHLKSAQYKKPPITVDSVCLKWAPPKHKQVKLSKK

TIP60-KAT5 = TIP60-KAT5 (Homo sapiens (Human), UniProt Q92993); assay: biochemical
MOZ-KAT6A = MOZ-KAT6A (Homo sapiens (Human), UniProt Q92794); assay: biochemical
HBO1-KAT7 = HBO1-KAT7 (Homo sapiens (Human), UniProt O95251); assay: biochemical
[1] = read-out: KAT6a Ki at 1 μM AcCoA, 1 μM AcCoA
[2] = read-out: KAT6a Ki at 10 μM AcCoA, 10 μM AcCoA
[3] = 25 μM AcCoA, read-out: KAT6b Ki at 25 μM AcCoA
[4] = read-out: KAT5 Ki at 1 μM AcCoA
[5] = read-out: KAT7 Ki at 1 μM AcCoA
[6] = read-out: KAT8 Ki at 1 μM AcCoA

Row | pKi (KAT6A; [1]) | pKi (KAT6A; [2]) | pKi (KAT6B; [3]) | pKi (KAT5; [4]) | pKi (KAT7; [5]) | pKi (KAT8; [6]) | pKi (KAT6A; KAT6a Ki at 1 μM AcCoA, 1 μM AcCoA) | pKi (KAT6B; KAT6b Ki at 1 μM AcCoA, 1 μM AcCoA) | pKi (KAT5; 1 μM AcCoA) | pKi (KAT7; KAT7 Ki at 1 μM AcCoA) | pKi (KAT8; 1 μM AcCoA) | pKi (KAT6B; read-out: KAT6b Ki at 1 μM AcCoA, 1 μM AcCoA) | SMILES | pIC50 (TIP60-KAT5) | pIC50 (MOZ-KAT6A) | pIC50 (HBO1-KAT7)
1 | 8.93 | 9.17 | 8.62 | 6.66 | 7.30 | 6.28 | – | – | – | – | – | – | COc1cccc(OC)c1S(=O)(=O)Nc1noc2cc(Cn3cccn3)c(C)cc12 [Example 27] | – | – | –
2 | 8.36 | – | 8.30 | 5.52 | 6.35 | 5.49 | – | – | – | – | – | – | COc1cccc(OC)c1S(=O)(=O)Nc1noc2cc(Cn3cccn3)ccc12 [Example 28] | – | – | –
3 | 9.28 | – | 8.85 | 6.74 | 7.22 | 6.00 | – | – | – | – | – | – | COc1cc2c(cc1S(=O)(=O)Nc1noc3cc(Cn4cccn4)cc(OC)c13)CCC2 [Example 29] | – | – | –
4 | – | – | 8.81 | – | – | – | 8.64 | 8.68 | 6.49 | 7.05 | 6.05 | – | COc1ccccc1S(=O)(=O)Nc1noc2cc(Cn3cccn3)cc(OC)c12 [Example 45, 2-methoxy-N-{4-methoxy-6-[(1H-pyrazol-1-yl)methyl]-1,2-benzoxazol-3-yl}benzene-1-sulfonamide] | – | – | –
5 | 8.94 | 9.31 | 8.88 | 6.74 | 7.40 | 6.25 | – | – | – | – | – | – | COc1cc(C)ccc1S(=O)(=O)Nc1noc2cc(Cn3cccn3)cc(OC)c12 [Example 47] | – | – | –
6 | 9.34 | 9.40 | 9.01 | 6.59 | 7.70 | 6.46 | – | – | – | – | – | – | CCOc1cc(C)ccc1S(=O)(=O)Nc1noc2cc(Cn3cccn3)cc(OC)c12 [Example 50] | – | – | –
7 | 8.57 | 8.78 | 8.38 | 6.11 | 7.05 | 5.95 | – | – | – | – | – | – | CCOc1ccccc1S(=O)(=O)Nc1noc2cc(Cn3cccn3)cc(OC)c12 [Example 51] | – | – | –
8 | 9.02 | 9.04 | 8.81 | 6.70 | 7.40 | 6.27 | – | – | – | – | – | – | COc1cc(Cn2cccn2)cc2onc(NS(=O)(=O)c3cccc4c(C)ccnc34)c12 [Example 61] | – | – | –
9 | 8.22 | 8.35 | 7.92 | 5.51 | 6.66 | 4.90 | – | – | – | – | – | – | COc1cc(Cn2cccn2)cc2onc(NS(=O)(=O)c3ccc(C)cc3F)c12 [Example 65] | – | – | –
10 | 8.64 | 8.49 | 8.72 | 6.39 | 6.85 | 5.49 | – | – | – | – | – | – | COc1cc(Cn2cccn2)cc2onc(NS(=O)(=O)c3cccc(C)c3F)c12 [Example 70] | – | – | –
11 | 8.93 | 8.93 | 8.55 | 6.49 | 7.52 | 5.84 | – | – | – | – | – | – | COc1cc(Cl)ccc1S(=O)(=O)Nc1noc2cc(Cn3cccn3)cc(OC)c12 [Example 71] | – | – | –
12 | 8.54 | 8.63 | 8.16 | 5.53 | 6.85 | 4.90 | – | – | – | – | – | – | COc1cc(Cn2cccn2)cc2onc(NS(=O)(=O)c3ccc(C)c(C)c3)c12 [Example 72] | – | – | –
13 | 8.64 | 8.77 | 8.87 | 6.15 | 6.60 | 5.49 | – | – | – | – | – | – | COc1cc(Cn2cccn2)cc2onc(NS(=O)(=O)c3c(C)ccc4cccnc34)c12 [Example 73] | – | – | –
14 | 8.04 | 8.19 | 7.86 | 5.24 | 6.49 | 4.90 | – | – | – | – | – | – | COc1cc(Cn2cccn2)cc2onc(NS(=O)(=O)c3cc(C)cc(F)c3)c12 [Example 75] | – | – | –
15 | 8.10 | 8.44 | 7.22 | 5.36 | 6.48 | 4.90 | – | – | – | – | – | – | COc1cc(Cn2cccn2)cc2onc(NS(=O)(=O)c3cccc(C)c3C#N)c12 [Example 76] | – | – | –
16 | 8.07 | 7.92 | 7.53 | 5.07 | 6.34 | 4.90 | – | – | – | – | – | – | COc1cc(Cn2cccn2)cc2onc(NS(=O)(=O)c3ccc(C(F)F)cc3)c12 [Example 77] | – | – | –
17 | 8.25 | 8.24 | 7.59 | 5.00 | 6.27 | 4.90 | – | – | – | – | – | – | COc1cc(Cn2cccn2)cc2onc(NS(=O)(=O)c3cc(C)c(F)c(C)c3)c12 [Example 78] | – | – | –
18 | 8.29 | 8.30 | 8.37 | 5.84 | 6.66 | 5.49 | – | – | – | – | – | – | COc1cc(Cn2cccn2)cc2onc(NS(=O)(=O)c3ccc(C)c(F)c3)c12 [Example 79] | – | – | –
19 | 8.10 | 8.25 | 7.91 | 5.33 | 6.72 | 4.90 | – | – | – | – | – | – | COc1ccc(S(=O)(=O)Nc2noc3cc(Cn4cccn4)cc(OC)c23)cc1C [Example 84] | – | – | –
20 | 7.41 | – | – | 4.97 | 5.74 | 4.75 | – | – | – | – | – | 6.88 | COc1cccc(OC)c1S(=O)(=O)Nc1noc2cc(Cn3cc(CO)cn3)cc(OC)c12 [Example 87, N-(6-{[4-(hydroxymethyl)-1H-pyrazol-1-yl]methyl}-4-methoxy-1,2-benzoxazol-3-yl)-2,6-dimethoxybenzene-1-sulfonamide] | – | – | –
21 | 8.97 | 9.35 | 8.56 | 6.96 | 7.52 | 6.62 | – | – | – | – | – | – | COc1cccc(OC)c1S(=O)(=O)Nc1noc2cc(Cn3cccn3)c(Br)cc12 [Example 92, N-{5-bromo-6-[(1H-pyrazol-1-yl)methyl]-1,2-benzoxazol-3-yl}-2,6-dimethoxybenzene-1-sulfonamide] | – | – | –
22 | 8.29 | – | 8.60 | 5.44 | 6.20 | 5.49 | – | – | – | – | – | – | COc1cccc(OC)c1S(=O)(=O)Nc1noc2cc(Cn3cccn3)cc(F)c12 [Example 94] | – | – | –
23 | 8.01 | – | 8.08 | 4.90 | 5.36 | 5.49 | – | – | – | – | – | – | CCc1cc(Cn2cccn2)cc2onc(NS(=O)(=O)c3c(OC)cccc3OC)c12 [Example 95, N-{4-ethyl-6-[(1H-pyrazol-1-yl)methyl]-1,2-benzoxazol-3-yl}-2,6-dimethoxybenzene-1-sulfonamide] | – | – | –
24 | 8.80 | – | 8.44 | 4.93 | 6.05 | 4.90 | – | – | – | – | – | – | COc1cccc(OC)c1S(=O)(=O)Nc1noc2cc(Cn3cccn3)cc(C3CC3)c12 [Example 96] | – | – | –
25 | 8.96 | – | 8.56 | 5.99 | 6.92 | 5.82 | – | – | – | – | – | – | COc1ccc(C2CC2)cc1S(=O)(=O)Nc1noc2cc(Cn3cccn3)cc(OC)c12 [Example 97, 5-cyclopropyl-2-methoxy-N-{4-methoxy-6-[(1H-pyrazol-1-yl)methyl]-1,2-benzoxazol-3-yl}benzene-1-sulfonamide] | – | – | –
26 | – | – | – | – | – | – | – | – | – | – | – | – | COc1cccc(OC)c1S(=O)(=O)Nc1noc2cc(-c3cnn(C)c3)cc(OC)c12 [Example 101, 2,6-dimethoxy-N-(4-methoxy-6-(1-methyl-1H-pyrazol-4-yl)benzo[d]isoxazol-3-yl)benzenesulfonamide] | 4.95 | 5.90 | 5.81
